# Key:
# [1] = test system: coffee berry borer (CBB), Hypothenemus hampei; assay: Second field study 2008 near Naranjo, Costa Rica: damaged berries 70 days after treatment; assay type: in vivo; conditions: Costa Rica 2008, 2500 m^2 blocks, 20 TMBs per hectare, 70 days after treatments were initiated
# Experimental: A second study was conducted in 2008 near Naranjo, Costa Rica. In this study, blocks treated with either blue and red TMBs had fewer damaged berries 70 days after treatments were initiated than did the untreated block or the block treated with endosulfan. Each block was 2500 m^2 in size and was treated with 20 TMBs per hectare.
# [2] = test system: coffee berry borer (CBB), Hypothenemus hampei; assay: Third field study 2008 near Alajuela, Costa Rica: damaged berries 70 days after treatment; assay type: in vivo; conditions: Costa Rica 2008, 2500 m^2 blocks, 20 TMBs per hectare, 70 days after treatments were initiated
# Experimental: A third study was conducted in 2008 near Alajuela, Costa Rica. In this study, 2500 m^2 blocks treated with either blue and red TMBs at a rate of 20 TMBs per hectare had fewer damaged berries 70 days after treatments were initiated than did the untreated block, the block treated with endosulfan, or the block treated with red plastic traps.
structure (smiles),measurement,setting,value
O=S1OCC2C(CO1)C1(Cl)C(Cl)=C(Cl)C2(Cl)C1(Cl)Cl (centres unmarked) [endosulfan],Mean % infested berries,[1],1.15%
same,Mean % infested berries,[2],5.9%
